The source of these data is patent US10927123B2, “Modulators of the beta-3 adrenergic receptor useful for the treatment or prevention of disorders related thereto” (Arena Pharmaceuticals, Inc., priority 2016, dated 2021).

The experiment has as its target Beta-3 Adrenergic Receptor (Homo sapiens (Human), UniProt P13945). Description: HTRF cAMP antagonist assay (IC50 determination). The class given is cell-based. The settings on record: CHO-K1 cells stably expressing recombinant receptor; antagonism of isoproterenol at EC90; cAMP readout. The method, boiled down:
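CHO-K1 cells stably expressing the recombinant receptor were preincubated with compound (10-point, 5-fold dilutions; top final typically 10 or 100 μM) in PBS with 1 mM IBMX, then stimulated with isoproterenol at its EC90 for 1 h at room temperature. cAMP was read by HTRF against an on-plate standard curve.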

SMILES strings stand for the structures.

Beta-3 Adrenergic Receptor, sequence (P13945 whole entry, species assumed): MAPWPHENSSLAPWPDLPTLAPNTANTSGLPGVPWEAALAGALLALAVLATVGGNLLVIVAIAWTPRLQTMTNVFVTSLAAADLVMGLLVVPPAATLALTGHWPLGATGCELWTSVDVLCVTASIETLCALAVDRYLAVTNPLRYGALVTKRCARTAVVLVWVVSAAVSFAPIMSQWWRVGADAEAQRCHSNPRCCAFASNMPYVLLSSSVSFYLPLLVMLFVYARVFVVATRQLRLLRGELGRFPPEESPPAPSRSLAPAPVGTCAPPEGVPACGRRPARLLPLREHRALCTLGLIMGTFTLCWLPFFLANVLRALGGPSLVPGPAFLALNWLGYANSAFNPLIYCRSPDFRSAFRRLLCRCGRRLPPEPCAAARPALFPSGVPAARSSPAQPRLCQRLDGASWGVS

By IC50 is commonly meant the concentration at which inhibition is half-maximal. Consider `CCOc1ccc(-c2ccc(CCNC(C)=O)cc2)cc1S(=O)(=O)N1CCC2(CC1)C[C@@H](NC[C@H](O)COc1cccc(S(=O)(=O)C3(CO)CC3)c1)CO2` [Compound 175, N-(2-(4′-ethoxy-3′-((R)-3-((S)-2-hydroxy-3-(3-(1-(hydroxymethyl)cyclopropylsulfonyl)phenoxy)propylamino)-1-oxa-8-azaspiro[4.5]decan-8-ylsulfonyl)biphenyl-4-yl)ethyl)acetamide], for which the IC50 was 716 nM.

`CCOc1ccc(-c2ccc(C(C)(C)CN)cc2)cc1S(=O)(=O)N1CCC2(CC1)C[C@H](NC[C@H](O)COc1cccc(S(=O)(=O)C3(CO)CC3)c1)CO2` [Compound 176, (S)-1-((S)-8-(4′-(1-amino-2-methylpropan-2-yl)-4-ethoxybiphenyl-3-ylsulfonyl)-1-oxa-8-azaspiro[4.5]decan-3-ylamino)-3-(3-(1-(hydroxymethyl)cyclopropylsulfonyl)phenoxy)propan-2-ol]: the IC50 was determined as 58.4 nM.

As to `CCOc1ccc(-c2ccc(CCNC(C)=O)cc2)cc1S(=O)(=O)N1CCC2(CC1)C[C@H](NC[C@H](O)COc1cccc(S(=O)(=O)C3(CO)CC3)c1)CO2` [Compound 177, N-(2-(4′-ethoxy-3′-((S)-3-((S)-2-hydroxy-3-(3-(1-(hydroxymethyl)cyclopropylsulfonyl)phenoxy)propylamino)-1-oxa-8-azaspiro[4.5]decan-8-ylsulfonyl)biphenyl-4-yl)ethyl)acetamide], the IC50 stood at 50.6 nM.

`CCOc1ccc(-c2ccc(CN)cc2)cc1S(=O)(=O)N1CCC2(CC1)C[C@@H](NC[C@H](O)COc1cccc(S(=O)(=O)CC(N)=O)c1)CO2` [Compound 179, 2-(3-((S)-3-((R)-8-(4′-(aminomethyl)-4-ethoxybiphenyl-3-ylsulfonyl)-1-oxa-8-azaspiro[4.5]decan-3-ylamino)-2-hydroxypropoxy)phenylsulfonyl)acetamide]: the IC50 amounted to 49.1 nM.

As for `CC(C)(CN)c1ccc(-c2cccc(S(=O)(=O)N3CCC4(CC3)C[C@H](NC[C@H](O)COc3cccc(S(=O)(=O)C5(CO)CC5)c3)CO4)c2)cc1` [Compound 180, (S)-1-((S)-8-(4′-(1-amino-2-methylpropan-2-yl)biphenyl-3-ylsulfonyl)-1-oxa-8-azaspiro[4.5]decan-3-ylamino)-3-(3-(1-(hydroxymethyl)cyclopropylsulfonyl)phenoxy)propan-2-ol], the IC50 was determined as 30.7 nM.

Regarding `CC(C)(CN)c1ccc(-c2cccc(S(=O)(=O)N3CCC4(CC3)C[C@@H](NC[C@H](O)COc3cccc(S(=O)(=O)C5(CO)CC5)c3)CO4)c2)cc1` [Compound 181, (S)-1-((R)-8-(4′-(1-amino-2-methylpropan-2-yl)biphenyl-3-ylsulfonyl)-1-oxa-8-azaspiro[4.5]decan-3-ylamino)-3-(3-(1-(hydroxymethyl)cyclopropylsulfonyl)phenoxy)propan-2-ol], the IC50 turned out to be 180 nM.

For `NCc1ccc(-c2cccc(S(=O)(=O)N3CCC4(CC3)C[C@H](NC[C@H](O)COc3cccc(S(=O)(=O)C5(CO)CC5)c3)CO4)c2)cc1F` [Compound 182, (S)-1-((S)-8-(4′-(aminomethyl)-3′-fluorobiphenyl-3-ylsulfonyl)-1-oxa-8-azaspiro[4.5]decan-3-ylamino)-3-(3-(1-(hydroxymethyl)cyclopropylsulfonyl)phenoxy)propan-2-ol], the IC50 came out at 24.7 nM.

In the case of `O=C(O)CS(=O)(=O)c1cccc(OC[C@@H](O)CN[C@H]2COC3(CCN(S(=O)(=O)c4cnc5ccccc5c4)CC3)C2)c1` [Compound 183, 2-(3-((S)-2-hydroxy-3-((R)-8-(quinolin-3-ylsulfonyl)-1-oxa-8-azaspiro[4.5]decan-3-ylamino)propoxy)phenylsulfonyl)acetic acid], the IC50 was found to be 1600 nM.

In the case of `NC1(c2ccc(-c3cccc(S(=O)(=O)N4CCC5(CC4)C[C@H](NC[C@H](O)COc4cccc(S(=O)(=O)C6(CO)CC6)c4)CO5)c3)cc2)CC1` [Compound 184, (S)-1-((S)-8-(4′-(1-aminocyclopropyl)biphenyl-3-ylsulfonyl)-1-oxa-8-azaspiro[4.5]decan-3-ylamino)-3-(3-(1-(hydroxymethyl)cyclopropylsulfonyl)phenoxy)propan-2-ol], the IC50 amounted to 26.7 nM.

For the compound `O=S(=O)(c1cncc(Br)c1)N1CCC2(CC1)C[C@@H](NC[C@H](O)COc1cccc(S(=O)(=O)C3(CO)CC3)c1)CO2` [Compound 185, (S)-1-((R)-8-(5-bromopyridin-3-ylsulfonyl)-1-oxa-8-azaspiro[4.5]decan-3-ylamino)-3-(3-(1-(hydroxymethyl)cyclopropylsulfonyl)phenoxy)propan-2-ol], the IC50 worked out at 258 nM.

On to `O=S(=O)(c1cncc(Br)c1)N1CCC2(CC1)C[C@H](NC[C@H](O)COc1cccc(S(=O)(=O)C3(CO)CC3)c1)CO2` [Compound 186, (S)-1-((S)-8-(5-bromopyridin-3-ylsulfonyl)-1-oxa-8-azaspiro[4.5]decan-3-ylamino)-3-(3-(1-(hydroxymethyl)cyclopropylsulfonyl)phenoxy)propan-2-ol], for which the IC50 came out at 78.6 nM.

With `CCOc1ccc(-c2ccc(CN)cc2)cc1S(=O)(=O)N1CCC2(CC1)C[C@H](NC[C@H](O)COc1cccc(S(=O)(=O)C(C)(C)CO)c1)CO2` [Compound 187, 2-(3-((S)-3-((S)-8-(4′-(aminomethyl)-4-ethoxybiphenyl-3-ylsulfonyl)-1-oxa-8-azaspiro[4.5]decan-3-ylamino)-2-hydroxypropoxy)phenylsulfonyl)-2-methylpropan-1-ol], the IC50 turned out to be 33.4 nM.

For the compound `CCOc1ccc(-c2ccc(C3(N)CC3)cc2)cc1S(=O)(=O)N1CCC2(CC1)C[C@H](NC[C@H](O)COc1cccc(S(=O)(=O)C3(CO)CC3)c1)CO2` [Compound 188, (S)-1-((S)-8-(4′-(1-aminocyclopropyl)-4-ethoxybiphenyl-3-ylsulfonyl)-1-oxa-8-azaspiro[4.5]decan-3-ylamino)-3-(3-(1-(hydroxymethyl)cyclopropylsulfonyl)phenoxy)propan-2-ol], the half-inhibitory concentration (IC50) was 35 nM.

As to `NCc1ccc(-c2cccc(S(=O)(=O)N3CCC4(CC3)C[C@@H](NC[C@H](O)COc3cccc(S(=O)(=O)C5CC5)c3)CO4)c2)cc1` [Compound 189, (S)-1-((R)-8-(4′-(aminomethyl)biphenyl-3-ylsulfonyl)-1-oxa-8-azaspiro[4.5]decan-3-ylamino)-3-(3-(cyclopropylsulfonyl)phenoxy)propan-2-ol], the IC50 stood at 10.3 nM.

Consider `CC(=O)NCCc1ccc(-c2cccc(S(=O)(=O)N3CCC4(CC3)C[C@H](NC[C@H](O)COc3cccc(S(=O)(=O)C5(CO)CC5)c3)CO4)c2)cc1` [Compound 190, N-(2-(3′-((S)-3-((S)-2-hydroxy-3-(3-(1-(hydroxymethyl)cyclopropylsulfonyl)phenoxy)propylamino)-1-oxa-8-azaspiro[4.5]decan-8-ylsulfonyl)biphenyl-4-yl)ethyl)acetamide], for which the IC50 is 31.3 nM.

In the case of `CC(=O)NCCc1ccc(-c2cccc(S(=O)(=O)N3CCC4(CC3)C[C@@H](NC[C@H](O)COc3cccc(S(=O)(=O)C5(CO)CC5)c3)CO4)c2)cc1` [Compound 191, N-(2-(3′-((R)-3-((S)-2-hydroxy-3-(3-(1-(hydroxymethyl)cyclopropylsulfonyl)phenoxy)propylamino)-1-oxa-8-azaspiro[4.5]decan-8-ylsulfonyl)biphenyl-4-yl)ethyl)acetamide], the concentration for half-maximal inhibition (IC50) worked out at 440 nM.

With `Cc1c(Br)cccc1S(=O)(=O)N1CCC2(CC1)C[C@@H](NC[C@H](O)COc1cccc(S(=O)(=O)C3(CO)CC3)c1)CO2` [Compound 192, (S)-1-((R)-8-(3-bromo-2-methylphenylsulfonyl)-1-oxa-8-azaspiro[4.5]decan-3-ylamino)-3-(3-(1-(hydroxymethyl)cyclopropylsulfonyl)phenoxy)propan-2-ol], the IC50 was 298 nM.

For the compound `COc1ccc(S(=O)(=O)N2CCC3(CC2)C[C@@H](NC[C@H](O)COc2cccc(S(=O)(=O)C4(CO)CC4)c2)CO3)cc1Br` [Compound 193, (S)-1-((R)-8-(3-bromo-4-methoxyphenylsulfonyl)-1-oxa-8-azaspiro[4.5]decan-3-ylamino)-3-(3-(1-(hydroxymethyl)cyclopropylsulfonyl)phenoxy)propan-2-ol], the IC50 worked out at 26.9 nM.

Take `Cc1cc(S(=O)(=O)N2CCC3(CC2)C[C@@H](NC[C@H](O)COc2cccc(S(=O)(=O)C4(CO)CC4)c2)CO3)ccc1Br` [Compound 194, (S)-1-((R)-8-(4-bromo-3-methylphenylsulfonyl)-1-oxa-8-azaspiro[4.5]decan-3-ylamino)-3-(3-(1-(hydroxymethyl)cyclopropylsulfonyl)phenoxy)propan-2-ol]: the IC50 was 13.6 nM.

In the case of `O=S(=O)(c1cccnc1)N1CCC2(CC1)C[C@@H](NC[C@H](O)COc1cccc(S(=O)(=O)C3(CO)CC3)c1)CO2` [Compound 195, (S)-1-(3-(1-(hydroxymethyl)cyclopropylsulfonyl)phenoxy)-3-((R)-8-(pyridin-3-ylsulfonyl)-1-oxa-8-azaspiro[4.5]decan-3-ylamino)propan-2-ol], the IC50 came to 1530 nM.

Regarding `Cc1cc(S(=O)(=O)N2CCC3(CC2)C[C@H](NC[C@H](O)COc2cccc(S(=O)(=O)C4(CO)CC4)c2)CO3)ccc1Br` [Compound 196, (S)-1-((S)-8-(4-bromo-3-methylphenylsulfonyl)-1-oxa-8-azaspiro[4.5]decan-3-ylamino)-3-(3-(1-(hydroxymethyl)cyclopropylsulfonyl)phenoxy)propan-2-ol], the IC50 is 34.6 nM.

Regarding `Cc1c(-c2ccc(CN)cc2)cccc1S(=O)(=O)N1CCC2(CC1)C[C@H](NC[C@H](O)COc1cccc(S(=O)(=O)C3(CO)CC3)c1)CO2` [Compound 197, (S)-1-((S)-8-(4′-(aminomethyl)-2-methylbiphenyl-3-ylsulfonyl)-1-oxa-8-azaspiro[4.5]decan-3-ylamino)-3-(3-(1-(hydroxymethyl)cyclopropylsulfonyl)phenoxy)propan-2-ol], the IC50 turned out to be 85 nM.
